Results on 13 molecules are retold here after US9969775B2, “CGRP antagonist peptides” (Ferring B.V., priority 2015, dated 2018).

Assay [1] concerns the target T1, hAM2 receptor (CALCRL:RAMP3) (Homo sapiens, UniProt O60896+Q16602).
T1 construct: expressed in transfected cells; host or cells: GeneBLAzer CALCRL:RAMP3-CRE-bla Freestyle 293F
Kind of assay: AM2 receptor antagonist activity measured by cAMP assay (HTRF). The following applies: for Emax: % MPE: percent of the maximal possible effect, read-out: hAM2-R Efficacy Antag (%) Ave; for Emax / pIC50: agonist human adrenomedullin; for pIC50: GeneBLAzer CALCRL:RAMP3-CRE-bla Freestyle 293F cells, read-out: hAM2-R IC50 Ave; for selectivity ratio CGRP/AM2: selectivity ratio for hCGRP over hAM2, calculated from the IC50 values. It counts as cell-based.

In assay [2] the target is T2, hCGRP receptor (CALCRL:RAMP1) (Homo sapiens, UniProt O60894+Q16602).
T2 construct: host or cells: GeneBLAzer CALCRL:RAMP1-CRE-bla Freestyle 293F
T2 sequence (Q16602 23-461): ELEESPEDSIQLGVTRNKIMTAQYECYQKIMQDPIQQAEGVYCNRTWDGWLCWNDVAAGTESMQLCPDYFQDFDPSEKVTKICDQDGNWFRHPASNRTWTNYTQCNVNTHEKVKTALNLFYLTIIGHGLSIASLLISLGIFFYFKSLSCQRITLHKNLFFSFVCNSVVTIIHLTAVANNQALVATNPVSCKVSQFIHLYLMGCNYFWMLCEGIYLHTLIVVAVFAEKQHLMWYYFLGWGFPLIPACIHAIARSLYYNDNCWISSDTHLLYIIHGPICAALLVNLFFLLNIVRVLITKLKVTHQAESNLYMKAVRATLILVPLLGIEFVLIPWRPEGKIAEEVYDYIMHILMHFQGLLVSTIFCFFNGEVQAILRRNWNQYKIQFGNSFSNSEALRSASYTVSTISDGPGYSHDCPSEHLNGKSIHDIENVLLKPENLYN
T2 sequence (O60894 27-148): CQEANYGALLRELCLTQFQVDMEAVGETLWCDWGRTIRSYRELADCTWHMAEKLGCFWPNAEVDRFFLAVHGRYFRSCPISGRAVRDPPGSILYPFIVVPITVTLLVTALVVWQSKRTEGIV
The assay can be described thus: CGRP receptor antagonist activity measured by cAMP assay (HTRF). In kind it is cell-based. To be noted: agonist human α-CGRP; for Emax: % MPE: percent of the maximal possible effect, read-out: hCGRP-R Efficacy Antag (%) Ave; for pIC50: GeneBLAzer CALCRL:RAMP1-CRE-bla Freestyle 293F cells, 30 minutes, read-out: hCGRP-R IC50 Ave.

pIC50: −log10 of the molar value. Numbered stars: 1 amine (or outer) side, 2 acyl side, 3 side chain; on linkers, the order of the positions; unused ones are H or OH. Bridge positions count the residues as written; N and C are the ends. Square brackets hold non-standard residues; d marks the D form. Peptide text beside a SMILES is read from it. * marks the point of attachment. Phe(3-CH2NH2) = O=C([C@H](Cc1cccc(CN[*:3])c1)N[*:1])[*:2]; Phe(2-CONH2) = NC(=O)c1ccccc1C[C@H](N)C(=O)O; X5 = O=C([C@H](Cc1ccc(CO)cc1)N[*:1])[*:2]; Triazol3yl(1,2,4-5-NH2) = Nc1nc(*)n[nH]1; Picolinoyl(3,5-F2) = O=C(c1ncc(F)cc1F)*; Imidazole4carbonyl = O=C(c1cnc[nH]1)*; Arg(Me) = CNC(=N)NCCC[C@H](N)C(=O)O; Picolinoyl(5-F) = O=C(c1ccc(F)cn1)*; Orn(iPr) = CC(C)NCCC[C@H](N)C(=O)O; Oxazole2carbonyl = O=C(c1ncco1)*; 3Pal = N[C@@H](Cc1cccnc1)C(=O)O; Picolinoyl = O=C(c1ccccn1)*; ΔPro = O=C(O)[C@@H]1C=CCN1; Orn = NCCC[C@H](N)C(=O)O; X12 = Cc1cccnc1C(=O)*; X1 = O=C(c1ncccc1F)*; X9 = Nc1cccnc1C(=O)*; X10 = O=C(c1nccs1)*; X6 = O=C(c1ccncn1)*

T1 sequence (Q16602 23-461): as the sequence (Q16602 23-461) above
T1 sequence (O60896 24-148): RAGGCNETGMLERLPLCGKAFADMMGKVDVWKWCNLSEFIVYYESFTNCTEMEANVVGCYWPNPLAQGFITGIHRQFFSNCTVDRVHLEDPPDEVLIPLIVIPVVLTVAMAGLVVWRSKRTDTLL

Usually pIC50 stands for the negative decadic logarithm of the IC50, by convention in mol/L. For `CC(C)[C@@H]1NC(=O)[C@H](CC(=O)O)NC(=O)[C@H](CCCNc2nc(N)n[nH]2)NC(=O)[C@@H](NC(=O)[C@H](Cc2ccc(O)cc2)NC(=O)[C@H](NC(=O)c2ccccn2)C(C)C)CSSC[C@@H](C(=O)N[C@@H](Cc2cccnc2)C(N)=O)NC(=O)[C@H](Cc2ccccc2)NC(=O)[C@@H]2CCCN2C(=O)CNC1=O` [Compound 27, Picolinoyl-D-Val-Tyr-c(Cys-Orn(Atz)-Asp-Val-Gly-Pro-Phe-Cys)-3Pal-NH2] (Picolinoyl-[dV]YC[Orn](Triazol3yl(1,2,4-5-NH2))DVGPFC[3Pal]-NH2; disulfide 3-10), in assay [1], the Emax was 98%, the negative logarithm of the IC50 (pIC50) was 6.92 and the “selectivity ratio CGRP/AM2” value is given as 765. Moreover, in assay [2], the Emax was 100% and the pIC50 is 9.82.

For `CNC(=N)NCCC[C@@H]1NC(=O)[C@@H](NC(=O)[C@H](Cc2ccc(O)cc2)NC(=O)[C@H](NC(=O)c2ccccn2)C(C)C)CSSC[C@@H](C(=O)N[C@@H](Cc2cccnc2)C(N)=O)NC(=O)[C@H](Cc2ccccc2)NC(=O)[C@@H]2CCCN2C(=O)CNC(=O)[C@H](C(C)C)NC(=O)[C@H](CC(=O)O)NC1=O` [Compound 28, Picolinoyl-D-Val-Tyr-c(Cys-Arg(Me)-Asp-Val-Gly-Pro-Phe-Cys)-3Pal-NH2] (Picolinoyl-[dV]YC[Arg(Me)]DVGPFC[3Pal]-NH2; disulfide 3-10), the Emax is 99% in assay [1] and 100% in assay [2].

As to `CC(C)[C@@H]1NC(=O)[C@H](CC(=O)O)NC(=O)[C@H](CCCN)NC(=O)[C@@H](NC(=O)[C@H](Cc2ccc(O)cc2)NC(=O)[C@H](NC(=O)c2ncccc2F)C(C)C)CSSC[C@@H](C(=O)N[C@@H](Cc2cccnc2)C(N)=O)NC(=O)[C@H](Cc2ccc(CO)cc2)NC(=O)[C@@H]2CCCN2C(=O)CNC1=O` [Compound 29, Picolinoyl(3-F)-D-Val-Tyr-c(Cys-Orn-Asp-Val-Gly-Pro-Phe(4-CH2OH)-Cys)-3Pal-NH2] (X1-[dV]YC[Orn]DVGP[X5]C[3Pal]-NH2; disulfide 3-10), in assay [1], the Emax is 98%, the negative logarithm of the IC50 (pIC50) was 6.83 and the “selectivity ratio CGRP/AM2” value is 1699. In addition, in assay [2], the Emax is 100% and the negative-log IC50 (pIC50) was 10.05.

Take `CC(C)NCCC[C@@H]1NC(=O)[C@@H](NC(=O)[C@H](Cc2ccccc2C(N)=O)NC(=O)[C@H](NC(=O)c2ncco2)C(C)C)CSSC[C@@H](C(=O)N[C@@H](Cc2cccnc2)C(N)=O)NC(=O)[C@H](Cc2ccccc2)NC(=O)[C@@H]2CCCN2C(=O)CNC(=O)[C@H](C(C)C)NC(=O)[C@H](CC(=O)O)NC1=O` [Compound 30, Oxazole-2-carbonyl-D-Val-Phe(2-Cbm)-c(Cys-Orn(iPr)-Asp-Val-Gly-Pro-Phe-Cys)-3Pal-NH2] (Oxazole2carbonyl-[dV][Phe(2-CONH2)]C[Orn(iPr)]DVGPFC[3Pal]-NH2; disulfide 3-10): in assay [1], the Emax is 98%, the negative logarithm of the IC50 (pIC50) is 6.15 and the “selectivity ratio CGRP/AM2” value was 6628. Further, in assay [2], the Emax was 100% and the pIC50 was 9.96.

Consider `CC(C)[C@@H]1NC(=O)[C@H](CC(=O)O)NC(=O)[C@H](CCCNC(=N)N)NC(=O)[C@@H](NC(=O)[C@H](Cc2ccccc2C(N)=O)NC(=O)[C@H](NC(=O)c2ccncn2)C(C)C)CSSC[C@@H](C(=O)N[C@@H](Cc2cccnc2)C(N)=O)NC(=O)[C@H](Cc2cccc(CN)c2)NC(=O)[C@@H]2C=CCN2C(=O)CNC1=O` [Compound 31, Pyrimidine-4-carbonyl-D-Val-Phe(2-Cbm)-c(Cys-Arg-Asp-Val-Gly-Dhp-Phe(3-CH2NH2)-Cys)-3Pal-NH2] (X6-[dV][Phe(2-CONH2)]CRDVG[ΔPro][Phe(3-CH2NH2)]C[3Pal]-NH2; disulfide 3-10), for which, in assay [1], the Emax was 100%, the pIC50 was 7.34 and the “selectivity ratio CGRP/AM2” value was 390. Further, in assay [2], the Emax was 100% and the negative logarithm of the IC50 (pIC50) was 9.92.

On to `CC(C)[C@@H]1NC(=O)[C@H](CC(=O)O)NC(=O)[C@H](CCCNC(=N)N)NC(=O)[C@@H](NC(=O)[C@H](Cc2ccccc2C(N)=O)NC(=O)[C@H](NC(=O)c2ncccc2F)C(C)C)CSSC[C@@H](C(=O)N[C@@H](Cc2cccnc2)C(N)=O)NC(=O)[C@H](Cc2cccc(CN)c2)NC(=O)[C@@H]2C=CCN2C(=O)CNC1=O` [Compound 32, Picolinoyl(3-F)-D-Val-Phe(2-Cbm)-c(Cys-Arg-Asp-Val-Gly-Dhp-Phe(3-CH2NH2)-Cys)-3Pal-NH2] (X1-[dV][Phe(2-CONH2)]CRDVG[ΔPro][Phe(3-CH2NH2)]C[3Pal]-NH2; disulfide 3-10), for which, in assay [1], the Emax was 99%, the pIC50 is 7.21 and the “selectivity ratio CGRP/AM2” value is 498. Moreover, in assay [2], the Emax was 100% and the pIC50 was 9.92.

For `CC(C)[C@@H]1NC(=O)[C@H](CC(=O)O)NC(=O)[C@H](CCCNC(=N)N)NC(=O)[C@@H](NC(=O)[C@H](Cc2ccc(O)cc2)NC(=O)[C@H](NC(=O)c2nccs2)C(C)C)CSSC[C@@H](C(=O)N[C@@H](Cc2cccnc2)C(N)=O)NC(=O)[C@H](Cc2ccccc2)NC(=O)[C@@H]2CCCN2C(=O)CNC1=O` [Compound 33] (X10-[dV]YCRDVGPFC[3Pal]-NH2; disulfide 3-10), in assay [1], the Emax was 100%, the negative-log IC50 (pIC50) was 7.96 and the “selectivity ratio CGRP/AM2” value is listed as 117. Besides, in assay [2], the Emax is 100% and the negative logarithm of the IC50 (pIC50) was 10.00.

`Cc1cccnc1C(=O)N[C@@H](C(=O)N[C@@H](Cc1ccc(O)cc1)C(=O)N[C@H]1CSSC[C@@H](C(=O)N[C@@H](Cc2cccnc2)C(N)=O)NC(=O)[C@H](Cc2ccccc2)NC(=O)[C@@H]2CCCN2C(=O)CNC(=O)[C@H](C(C)C)NC(=O)[C@H](CC(=O)O)NC(=O)[C@H](CCCNC(=N)N)NC1=O)C(C)C` [Compound 34] (X12-[dV]YCRDVGPFC[3Pal]-NH2; disulfide 3-10): in assay [1], the Emax was 100%, the pIC50 is 8.10 and the “selectivity ratio CGRP/AM2” value was 58. Moreover, in assay [2], the Emax is 100% and the pIC50 is 9.85.

As to `CC(C)[C@@H]1NC(=O)[C@H](CC(=O)O)NC(=O)[C@H](CCCNC(=N)N)NC(=O)[C@@H](NC(=O)[C@H](Cc2ccc(O)cc2)NC(=O)[C@H](NC(=O)c2ncc(F)cc2F)C(C)C)CSSC[C@@H](C(=O)N[C@@H](Cc2cccnc2)C(N)=O)NC(=O)[C@H](Cc2ccccc2)NC(=O)[C@@H]2CCCN2C(=O)CNC1=O` [Compound 35] ({Picolinoyl(3,5-F2)}-[dV]YCRDVGPFC[3Pal]-NH2; disulfide 3-10), in assay [1], the Emax is 101%, the negative-log IC50 (pIC50) was 7.48 and the “selectivity ratio CGRP/AM2” value was 580. In assay [2], the Emax was 100% and the negative-log IC50 (pIC50) is 10.22.

For the molecule `CC(C)[C@@H]1NC(=O)[C@H](CC(=O)O)NC(=O)[C@H](CCCNC(=N)N)NC(=O)[C@@H](NC(=O)[C@H](Cc2ccc(O)cc2)NC(=O)[C@H](NC(=O)c2ncccc2N)C(C)C)CSSC[C@@H](C(=O)N[C@@H](Cc2cccnc2)C(N)=O)NC(=O)[C@H](Cc2ccccc2)NC(=O)[C@@H]2CCCN2C(=O)CNC1=O` [Compound 36] (X9-[dV]YCRDVGPFC[3Pal]-NH2; disulfide 3-10), in assay [1], the Emax is 101%, the negative logarithm of the IC50 (pIC50) is 7.80 and the “selectivity ratio CGRP/AM2” value is 93. Moreover, in assay [2], the Emax is 100% and the negative logarithm of the IC50 (pIC50) is 9.77.

For the molecule `CC(C)[C@@H]1NC(=O)[C@H](CC(=O)O)NC(=O)[C@H](CCCNC(=N)N)NC(=O)[C@@H](NC(=O)[C@H](Cc2ccc(O)cc2)NC(=O)[C@H](NC(=O)c2cnc[nH]2)C(C)C)CSSC[C@@H](C(=O)N[C@@H](Cc2cccnc2)C(N)=O)NC(=O)[C@H](Cc2ccccc2)NC(=O)[C@@H]2CCCN2C(=O)CNC1=O` [Compound 37] (Imidazole4carbonyl-[dV]YCRDVGPFC[3Pal]-NH2; disulfide 3-10), in assay [1], the Emax was 100%, the pIC50 was 6.42 and the “selectivity ratio CGRP/AM2” value was 2295. In assay [2], the Emax is 100% and the negative-log IC50 (pIC50) was 9.77.

For the molecule `CC(C)NCCC[C@@H]1NC(=O)[C@@H](NC(=O)[C@H](Cc2ccccc2C(N)=O)NC(=O)[C@H](NC(=O)c2ccc(F)cn2)C(C)C)CSSC[C@@H](C(=O)N[C@@H](Cc2cccnc2)C(N)=O)NC(=O)[C@H](Cc2cccnc2)NC(=O)[C@@H]2C=CCN2C(=O)CNC(=O)[C@H](C(C)C)NC(=O)[C@H](CC(=O)O)NC1=O` [Compound 38, Picolinoyl(5-F)-D-Val-Phe(2-Cbm)-c(Cys-Orn(iPr)-Asp-Val-Gly-Dhp-3Pal-Cys)-3Pal-NH2] ({Picolinoyl(5-F)}-[dV][Phe(2-CONH2)]C[Orn(iPr)]DVG[ΔPro][3Pal]C[3Pal]-NH2; disulfide 3-10), in assay [1], the Emax was 101%, the negative logarithm of the IC50 (pIC50) was 7.06 and the “selectivity ratio CGRP/AM2” value is 1478. In assay [2], the Emax was 100% and the pIC50 was 10.22.

`CC(C)NCCC[C@@H]1NC(=O)[C@@H](NC(=O)[C@H](Cc2ccccc2C(N)=O)NC(=O)[C@H](NC(=O)c2ccc(F)cn2)C(C)C)CSSC[C@@H](C(=O)N[C@@H](Cc2cccnc2)C(N)=O)NC(=O)[C@H](Cc2cccnc2)NC(=O)[C@@H]2CCCN2C(=O)CNC(=O)[C@H](C(C)C)NC(=O)[C@H](CC(=O)O)NC1=O` [Compound 39, Picolinoyl(5-F)-D-Val-Phe(2-Cbm)-c(Cys-Orn(iPr)-Asp-Val-Gly-Pro-3Pal-Cys)-3Pal-NH2] ({Picolinoyl(5-F)}-[dV][Phe(2-CONH2)]C[Orn(iPr)]DVGP[3Pal]C[3Pal]-NH2; disulfide 3-10): in assay [1], the Emax is 101%, the pIC50 is 6.56 and the “selectivity ratio CGRP/AM2” value is recorded as 2125. Also, in assay [2], the Emax is 100% and the pIC50 was 9.89.
